{"source": "patent US20140350050A1", "about": "“PYRIDINE COMPOUNDS AS INHIBITORS OF KINASE” (TELIGENE LTD., priority 2011, published 2014)", "key": {"[1]": {"biological_target": "T1, BAF3-EML4-ALK stable cell line (Homo sapiens, UniProt Q9UM73)", "T1 construct": "fused on or other part: Q9HC35 (Echinoderm microtubule-associated protein-like 4)", "T1 sequence (Q9UM73 whole entry, change not shown, the tested form may be a part)": "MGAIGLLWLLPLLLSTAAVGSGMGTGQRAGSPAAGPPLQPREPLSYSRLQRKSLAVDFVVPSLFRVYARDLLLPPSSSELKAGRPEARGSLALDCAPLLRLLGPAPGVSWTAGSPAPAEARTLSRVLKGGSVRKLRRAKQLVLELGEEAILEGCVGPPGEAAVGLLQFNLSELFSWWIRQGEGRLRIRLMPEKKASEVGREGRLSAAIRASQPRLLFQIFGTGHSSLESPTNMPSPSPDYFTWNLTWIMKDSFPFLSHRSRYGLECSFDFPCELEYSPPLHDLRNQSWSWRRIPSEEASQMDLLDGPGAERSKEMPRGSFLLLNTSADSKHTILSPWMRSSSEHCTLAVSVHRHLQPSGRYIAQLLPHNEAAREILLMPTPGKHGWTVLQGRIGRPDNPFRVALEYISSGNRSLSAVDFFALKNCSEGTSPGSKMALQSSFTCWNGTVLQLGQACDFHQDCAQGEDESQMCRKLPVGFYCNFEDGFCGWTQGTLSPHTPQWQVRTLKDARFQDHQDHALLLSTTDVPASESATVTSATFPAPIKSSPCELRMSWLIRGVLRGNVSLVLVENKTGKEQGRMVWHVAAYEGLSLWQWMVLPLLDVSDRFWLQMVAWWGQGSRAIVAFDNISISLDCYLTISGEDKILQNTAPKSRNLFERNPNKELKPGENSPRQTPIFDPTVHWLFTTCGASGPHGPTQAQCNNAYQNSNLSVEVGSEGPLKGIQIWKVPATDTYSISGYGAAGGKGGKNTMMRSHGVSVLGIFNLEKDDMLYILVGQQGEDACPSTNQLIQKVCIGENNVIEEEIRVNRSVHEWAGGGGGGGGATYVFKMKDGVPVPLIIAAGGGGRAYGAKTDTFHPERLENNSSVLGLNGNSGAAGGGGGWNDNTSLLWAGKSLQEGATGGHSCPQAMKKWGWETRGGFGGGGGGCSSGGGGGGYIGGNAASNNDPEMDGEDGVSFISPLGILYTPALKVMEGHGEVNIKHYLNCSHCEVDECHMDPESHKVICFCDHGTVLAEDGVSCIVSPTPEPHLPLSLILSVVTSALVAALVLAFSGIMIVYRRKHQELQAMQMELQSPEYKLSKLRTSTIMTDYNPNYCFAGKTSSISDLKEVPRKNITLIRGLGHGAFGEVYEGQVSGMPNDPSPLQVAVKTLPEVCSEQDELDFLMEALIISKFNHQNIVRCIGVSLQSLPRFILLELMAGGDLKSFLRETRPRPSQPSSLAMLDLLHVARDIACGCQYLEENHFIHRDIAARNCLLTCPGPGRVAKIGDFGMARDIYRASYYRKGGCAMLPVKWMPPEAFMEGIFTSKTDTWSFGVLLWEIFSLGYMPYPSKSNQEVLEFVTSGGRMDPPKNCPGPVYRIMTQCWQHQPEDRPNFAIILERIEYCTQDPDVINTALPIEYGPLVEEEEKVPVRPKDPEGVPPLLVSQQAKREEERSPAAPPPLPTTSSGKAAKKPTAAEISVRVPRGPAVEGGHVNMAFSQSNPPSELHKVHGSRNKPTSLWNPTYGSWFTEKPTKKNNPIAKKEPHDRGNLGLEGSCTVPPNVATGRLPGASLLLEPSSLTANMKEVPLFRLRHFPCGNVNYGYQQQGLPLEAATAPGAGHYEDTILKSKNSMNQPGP", "assay": "BAF3-EML4-ALK cell assay (MTT cell proliferation)", "assay_type": "cell-based", "details": "72 hours, read-out: BAF3-EML4-ALK Cell (IC50 grading)", "description": "BAF3-EML4-ALK Cell Assay:\nA method of establishing BAF3-EML4-ALK stable cell line: Transfer 5×10^6 BAF3 cells to a new tube, pellet the cells, and remove PBS by aspiration.; Resuspend the cells in 1 ml electroporation buffer, this provides 5×10^6 of cells; Transfer 200 μl of cell suspension to EP tube, add 5 ug DNA, flip and place it on ice for 10 min; Pipet the 200 μl cell suspension into 2 mm electroporation cuvette; Place the cuvette into shockpod, close the lid, and press the PULSE button; Set parameters: Expentional decay pulse: VOL=200 V; CAP=900 uF, RES=1000Ω; Transfer all cells from electroporation cuvette to 6 well plate, adding 2 ml DMEMF12 containing 5 ng/ml IL3, 24 h later, replace the medium with DMEM F12 containing 2 μg/ml blasticidin S and 5 ng/ml IL3, maintain for 3 days; change the medium with DMEM F12 containing 2 ug/ml blasticidin S and 2.5 ng/ml IL3, maintain 3 days; change the medium with DMEM F12 containing 2 ug/Ml blasticidin S, maintain to culture.\nMTT Cell proliferation assay: 5×10^3 per well cell with 100 μl medium was seeded in 96-well plate; 24 hours later, 100 μl fresh medium with various concentration of compounds; After the cells were treated by compounds for 72 hours, add 20 μl MTT (5 mg/ml) into each wells; The plate is incubated at 37° C. for 4 hours; Centrifuge the plate at 800 g for 10 mins, Aspirated the medium, add 150 μl DMSO into each well. Shake plates gently for 10 mins, Measure the absorbance at 570 nm on plate reader; IR=(WC−WT)/WC."}, "[2]": {"test_system": "EML4-ALK-BAF3 cell line xenograft", "assay_type": "in vivo", "details": "Table C, 40 mg/kg oral gavage once daily", "source_text": "A representative protocol for the in vivo experiment is as followed to establish the subcutaneous EML4-ALK-BAF3 cell line xenograft model in nude mice and to evaluate the in vivo therapeutic efficacy of the compounds: Animals: Male Balb/c nude mice (6˜8 weeks old) were obtained from SLAC Laboratory Animal, Shanghai, China. Animals were maintained under SPF conditions in sterile filter top cages and housed on HEPA-filtered ventilated racks. Animals received sterile rodent chow and water ad libitum. Cell line: BAF3-EML4-ALK stable cell line, the BAF3 cell which could expressed fusion oncogene EML4-ALK. S.c. Xenograft Models in Athymic Mice: Cells for implantation into athymic mice were harvested and pelleted by centrifugation at 1200 r/min for 5 min. Cells were washed once and resuspended in sterile PBS buffer with 5×10^6 in 200 μl. Then cells were implanted s.c. into the right scapular region of each mouse and allowed to grow to 200˜300 mm^3 before the administration of compound. Preparation of the Dose Formulation: each compound was suspensioned in 0.5% CMC-Na. Randomization: When tumor volumes approach 200˜300 mm^3, the mice will be randomized into 5 groups according to the tumor volume. The day will be denoted as D1 and the treatments will be started at this day. Administered: Dose will be administered with oral gavage needle once daily for number of days. Treatment of compounds administered in 0.5% CMC-Na by p.o. gavage was initiated when tumors were 200˜300 mm^3 in volume. Observations: After inoculation, the animals will be checked daily for morbidity and mortality. At the time of routine monitoring, the animals will be checked for any effects of tumor growth and treatments on normal behavior such as mobility, body weight gain/loss (body weights will be measured twice weekly or every other day), eye/hair matting and any other abnormal effect. Death and observed clinical signs will be recorded on the basis of the numbers of animals within each subset. Tumor Size Measurements: Tumor volume was determined by measurement with electronic vernier calipers every 3 days and tumor volume was calculated as the product of its length×width^2×0.5. Effect studies: Tumor volume was expressed on indicated days as the mean tumor volume ±SD. […] Significant differences between the treated versus the control groups (p<0.05) were determined using t test. At study endpoint, after blood collection, mice were practiced euthanasia by cervical dislocation, the tumor tissue was collected first, then abdominal cavity was cut open, liver and spleen were excised, then weight after the gallblader was removed respectively. Organ weight and Organ/body weight ratios between the treated versus the control groups were compared. Ratios was calculated as follows: Ratios=Organ weight/(body weight-tumor weight). Both organ weight and Organ/body weight ratios were also expressed as mean±SD, and significant differences between the treated versus the control groups (p<0.05) were determined using t test."}}, "note": "Where two headings read alike, the source gives them in different places."}
{"smiles": "[2H]C([2H])([2H])C([2H])([2H])N1CCC(n2cc(-c3cnc(N)c(O[C@H](C)c4c(Cl)ccc(F)c4Cl)c3)cn2)CC1", "note": "[Compound 22, (R)-3-(1-(2,6-dichloro-3-fluorophenyl)ethoxy)-5-(1-(1-d5-ethylpiperidin-4-yl)-1H-pyrazol-4-yl)pyridin-2-amine]", "values": [{"measurement": "GI50", "setting": "[1]", "result": "≤ 0.1", "unit": "µM"}, {"measurement": "Tumor growth inhibition (TGI, %)", "setting": "[2]; day 2", "result": 22.58, "unit": "%"}, {"measurement": "Tumor growth inhibition (TGI, %)", "setting": "[2]; day 5", "result": 53.72, "unit": "%"}, {"measurement": "Tumor growth inhibition (TGI, %)", "setting": "[2]; day 8", "result": 66.61, "unit": "%"}, {"measurement": "Tumor growth inhibition (TGI, %)", "setting": "[2]; day 11", "result": 82.97, "unit": "%"}, {"measurement": "Tumor growth inhibition (TGI, %)", "setting": "[2]; day 14", "result": 87.64, "unit": "%"}]}
